Legend:
[1] = test system: DMXAA induced ISG gene expression in mouse RAW-Lucia cells; test: Inhibition of DMXAA-induced ISG gene expression in mouse RAW-Lucia cells (QUANTI-Luc); format: cell-based; details: STING agonist DMXAA 50 µM, incubated for 24 hours
Description: 10 µL of compound diluted with PBS/physiological saline was added to each well of a 96 well cell culture plate. The STING agonist was DMXAA, which was added to the counted cell suspension at a final concentration of 50 µM. For the control group without compounds, 10 µL of PBS/physiological saline containing 2% DMSO was added. 3 replicate wells were set in each group. RAW-Lucia cells were counted and adjusted to a cell concentration of 4×10^5/mL, and […] of cells were added to each well for incubation. Therefore, the final volume of each test well was 200 µL, the content of DMSO was 0.1%, and the final concentration of the compound tested was 10/3.3/1.1/0.4/0.13/0.04/0.013/0.004 µM. The final concentration of STING agonist DMXAA was 50 µM. The mixture was incubated for 24 hours. In addition, 200 µL of culture medium was added to the blank group. 3 replicate wells were set in each group.
(§1) After 24 hours, 20 µL of culture medium was taken from each well and transferred to a new 96 well plate with photopermeable bottom. 50 µL of the luciferase detection reagent QUANTI-Luc™ was added, and the […] was immediately measured (avoid light).
Result analysis: Inhibition rate (%) = (Con(Lum)−Treated(Lum))/Con(Lum) × 100% [formula]
(§2) The IC50 calculation of inhibitors was implemented using the Graphpad Prism 8 software's calculation method log (inhibitor) vs. response - Variable slope (four parameters), with a constrain interval of 0-100.

[2] = test system: ISG gene expression induced by MSA-2 in human THP1-Dual cells; test: Inhibition of MSA-2-induced ISG gene expression in human THP1-Dual cells (QUANTI-Luc); format: cell-based; details: STING agonist MSA-2 10 µM, incubated for 24 hours
Description: 10 µL of compound diluted with PBS/physiological saline was added to each well of a 96 well cell culture plate. The STING agonist was MSA-2, which was added to the counted cell suspension at a final concentration of 10 µM. For the control group without compounds, 10 µL of PBS/physiological saline containing 2% DMSO was added. 3 replicate wells were set in each group. THP1-Dual cells were counted and adjusted to a cell concentration of 4×10^5/mL, and 190 µL of cells containing STING agonist were added to each well for incubation. Therefore, the final volume of each test well was 200 µL, the content of DMSO was 0.1%, and the final concentration of the compound tested was 10/3.3/1.1/0.4/0.13/0.04/0.013/0.004 µM, incubated for 24 hours. In addition, 190 µL of cells without STING agonist and 10 µL of physiological saline containing 2% DMSO were added to the blank group. 3 replicate wells were set in each group.
as §1, with “medium for THP1-Dual cells” for “medium”, “light). Result analysis:Inhibition rate (%) = (Con(Lum)−Treated(Lum))/Con(Lum) × 100% [formula]” for “light).”
as §2

Molecule | IC50 [1] [nM] | IC50 [2] [nM]
CC1(C)C(=O)N(Cc2ccc3[nH]ccc3c2)c2cc(C(=O)Nc3c[nH]c4ccccc34)ccc21 [Example I-94, 1-(indol-5-ylmethyl)-N-(1H-indol-3-yl)-3,3-dimethyl-2-oxoindolin-6-carboxamide] |  | 106
CC1(C)C(=O)N(CC2CN(c3cc(F)cc(C(F)(F)F)c3)C2)c2cc(C(=O)Nc3c[nH]c4ccc(F)cc34)ccc21 [Example I-28] | 62 | 
CC1(C)C(=O)N(Cc2csc(Cl)c2)c2cc(C(=O)Nc3c[nH]c4ccccc34)ccc21 [Example I-84, 1-((5-chlorothien-3-yl)methyl)-N-(1H-indol-3-yl)-3,3-dimethyl-2-oxoindolin-6-carboxamide] | 4.69 | 20.5
CC1(C)C(=O)N(Cc2ccc3c(c2)OCO3)c2cc(C(=O)Nc3c[nH]c4ccccc34)ccc21 [Example I-92, 1-(benzo[d][1,3]dihydroxyl-5-ylmethyl)-N-(1H-indol-3-yl)-3,3-dimethyl-2-oxoindol-6-carboxamide] | 94 | 28.8
CC1(C)C(=O)N(Cc2csc(C(F)(F)F)c2)c2cc(C(=O)Nc3c[nH]c4ccccc34)sc21 [Example I-90, N-(1H-indol-3-yl)-6,6-dimethyl-5-oxo-4-((5-(trifluoromethyl)thien-3-yl)methyl)-5,6-dihydro-4H-thieno[3,2-b]pyrrol-2-carboxamide] |  | 98
CCC1(C)C(=O)N(Cc2ccccc2)c2cc(C(=O)Nc3c[nH]c4ccccc34)ccc21 (stereo not shown) [Example I-101] | 38.5 | 16.4
1-((4-chlorothien-3-yl)methyl)-N-(1H-indol-3-yl)-3,3-dimethyl-2-oxoindolin-6-carboxamide [Example I-89] |  | 119
CC1(C)C(=O)N(Cc2cc(F)cc(C(F)(F)F)c2)c2cc(C(=O)Nc3c[nH]c4ccccc34)sc21 [Example I-88, 4-(3-fluoro-5-(trifluoromethyl)benzyl)-N-(1H-indol-3-yl)-6,6-dimethyl-5-oxo-5,6-dihydro-4H-thieno[3,2-b]pyrrol-2-carboxamide] |  | 143
CC1(C)C(=O)N(Cc2cccc3ccoc23)c2cc(C(=O)Nc3c[nH]c4ccccc34)ccc21 [Example I-97, 1-(benzofuran-7-ylmethyl)-N-(1H-indol-3-yl)-3,3-dimethyl-2-oxoindolin-6-carboxamide] | 17.1 | 3.3
CC1(C)C(=O)N(Cc2ccc3occc3c2)c2cc(C(=O)Nc3c[nH]c4ccccc34)ccc21 [Example I-93, 1-(benzofuran-5-ylmethyl)-N-(1H-indol-3-yl)-3,3-dimethyl-2-oxoindolin-6-carboxamide] |  | 74.8
CC1(C)C(=O)N(Cc2ccoc2)c2cc(C(=O)Nc3c[nH]c4ccccc34)sc21 [Example I-86, 4-(furan-3-ylmethyl)-N-(1H-indol-3-yl)-6,6-dimethyl-5-oxo-5,6-dihydro-4H-thieno[3,2-b]pyrrol-2-carboxamide] |  | 221
CC1(C)C(=O)N(Cc2coc(Cl)c2)c2cc(C(=O)Nc3c[nH]c4ccccc34)sc21 [Example I-91, 4-((5-chlorofuran-3-yl)methyl)-N-(1H-indol-3-yl)-6,6-dimethyl-5-oxo-5,6-dihydro-4H-thieno[3,2-b]pyrrol-2-carboxamide] |  | 117
CC1(C)C(=O)N(Cc2ccccc2-c2ccccc2)c2cc(C(=O)Nc3c[nH]c4ccccc34)ccc21 [Example I-95, 1-([1,1'-biphenyl]-2-ylmethyl)-N-(1H-indol-3-yl)-3,3-dimethyl-2-oxoindolin-6-carboxamide] |  | 228
CC1(C)C(=O)N(Cc2ccccc2)c2cc(C(=O)Nc3c[nH]c4ccccc34)sc21 [Example I-87, 4-benzyl-N-(1H-indol-3-yl)-6,6-dimethyl-5-oxo-5,6-dihydro-4H-thieno[3,2-b]pyrrol-2-carboxamide] |  | 149

The next lines start with the values.

IC50 [1] [nM] | IC50 [2] [nM] | Molecule
8.69 | 33.1 | CC1(C)C(=O)N(Cc2cc(F)cc(C(F)(F)F)c2)c2cc(C(=O)Nc3c[nH]c4ccccc34)ccc21 [Example I-104]
29.1 | 123 | CC1(C)C(=O)N(Cc2cc(F)cc(C(F)(F)F)c2)c2cc(C(=O)Nc3c[nH]c4cc(F)c(F)cc34)ccc21 [Example I-111]
< 3 | 48 | O=C(Nc1c[nH]c2ccc(F)cc12)c1cc2c(s1)SCC(=O)N2Cc1cc(F)cc(C(F)(F)F)c1 [Example I-124, N-(5-fluoro-1H-indol-3-yl)-1-(3-fluoro-5-(trifluoromethyl)benzyl)-2-oxo-2,3-dihydro-1H-thieno[2,3-b][1,4]thiazin-6-carboxamide]
5.26 | 76.6 | O=C(Nc1c[nH]c2cc(F)c(F)cc12)c1cc2c(s1)SCC(=O)N2Cc1cc(F)cc(C(F)(F)F)c1 [Example I-125, N-(5,6-difluoro-1H-indol-3-yl)-1-(3-fluoro-5-(trifluoromethyl)benzyl)-2-oxo-2,3-dihydro-1H-thieno[2,3-b][1,4]thiazin-6-carboxamide]
14.3 | 36.8 | CC1(C)C(=O)N(Cc2cc(F)cc(C(F)(F)F)c2)c2cc(C(=O)Nc3c[nH]c4ccc(F)cc34)ccc21 [Example I-110]
2.72 | 147 | CC1(C)C(=C=O)N(CCc2ccccc2)c2cc(C(=O)Nc3c[nH]c4ccc(F)cc34)ccc21 [Example I-107, N-(5-fluoro-1H-indol-3-yl)-3,3-dimethyl-2-carbonyl-1-phenethylindolin-6-carboxamide]
58.5 | 58.5 | CC1(C)C(=O)N(Cc2cccc3ccoc23)c2cc(C(=O)Nc3c[nH]c4ccc(F)cc34)ccc21 [Example I-126, 1-(benzofuran-7-ylmethyl)-N-(5-fluoro-1H-indol-3-yl)-3,3-dimethyl-2-oxoindolin-6-carboxamide]
1.74 | 71.4 | CC1(C)C(=O)N(CCc2ccsc2)c2cc(C(=O)Nc3c[nH]c4ccccc34)ccc21 [Example I-108, N-(1H-indol-3-yl)-3,3-dimethyl-2-carbonyl-1-(2-(thien-3-yl)ethyl) indolin-6-carboxamide]
31.7 | 268 | O=C(Nc1c[nH]c2ccc(F)cc12)c1cc2c(s1)SCC(=O)N2Cc1ccco1 [Example I-121, N-(5-fluoro-1H-indol-3-yl)-1-(furan-2-ylmethyl)-2-oxo-2,3-dihydro-1H-thieno[2,3-b][1,4]thiazin-6-carboxamide]
5.71 | 69 | O=C(Nc1c[nH]c2ccc(Cl)cc12)c1cc2c(s1)SCC(=O)N2Cc1cc(F)cc(C(F)(F)F)c1 [Example I-123, N-(5-chloro-1H-indol-3-yl)-1-(3-fluoro-5-(trifluoromethyl)benzyl)-2-oxo-2,3-dihydro-1H-thieno[2,3-b][1,4]thiazin-6-carboxamide]
10.6 | 20.8 | CC1(C)C(=O)N(Cc2csc(C(F)(F)F)c2)c2cc(C(=O)Nc3c[nH]c4ccccc34)ccc21 [Example I-102]
45.5 |  | O=C(Nc1c[nH]c2ccccc12)c1cc2c(s1)SCC(=O)N2CC1CCOCC1 [Example I-119, N-(1H-indol-3-yl)-2-oxo-1-((tetrahydro-2H-pyran-4-yl)methyl)-2,3-dihydro-1H-thieno[2,3-b][1,4]thiazin-6-carboxamide]
3.38 | 70.4 | CC1(C)C(=O)N(Cc2ccccc2)c2cc(C(=O)Nc3c[nH]c4ccc(F)cc34)ccc21 [Example I-105]
 | 291 | CC1(C)C(=O)N(Cc2cccc3ccoc23)c2cc(C(=O)Nc3c[nH]c4cc(F)c(F)cc34)ccc21 [Example I-127, 1-(benzofuran-7-ylmethyl)-N-(5,6-difluoro-1H-indol-3-yl)-3,3-dimethyl-2-oxoindolin-6-carboxamide]
 | 164 | O=C(Nc1c[nH]c2ccccc12)c1cc2c(s1)SCC(=O)N2Cc1cccs1 [Example I-114, N-(1H-indol-3-yl)-2-oxo-1-(thien-2-ylmethyl)-2,3-dihydro-1H-thieno[2,3-b][1,4]thiazin-6-carboxamide]
 | 206 | O=C(Nc1c[nH]c2ccccc12)c1cc2c(s1)SCC(=O)N2CC1CC1 [Example I-116, 1-(cyclopropylmethyl)-N-(1H-indol-3-yl)-2-oxo-2,3-dihydro-1H-thieno[2,3-b][1,4]thiazin-6-carboxamide]

Reference: patent EP4748844A1, “AZETIDINE COMPOUND AND MEDICAL USE THEREOF” (SHANGHAI INSTITUTE OF MATERIA MEDICA, CHINESE ACADEMY OF …, priority 2023, dated 2025)
